In BindingDB's records for PubMed 34225181 (University of Electronic Science and Technology of China, 2021):
pIC50: −log10 of the molar value.

Experiment: Inhibition of L1 (unknown origin) using cefazolin as substrate incubated for 5 mins by Agilent UV8453 spectrometric analysis

## O=C(NNC(=S)S)c1ccccc1O
  pIC50: 6.42
